Experimental data from patent US4748154A, “Peptide derivatives, their production and use” (Takeda Chemical Industries, Ltd., priority 1985, dated 1988).
Square brackets hold non-standard residues; d marks the D form. Peptide text beside a SMILES is read from it. * marks the point of attachment. Cys(free,S-linked) = N[C@@H](CS*)C(=O)O; pGlu = O=C1CC[C@@H](C(=O)O)N1

System: C57BL/6 mice
Assay: one-trial passive avoidance task, amnesia induced by cycloheximide
Format: in vivo
Conditions: 24 h after footshock and cycloheximide 20 mg/kg sc
Protocol: The effect on memory process was tested in a one-trial passive avoidance task in C57BL/6 mice. The learning procedure was fundamentally the same as that used by Burbach et al (Science; 221, 1310-1312, 1983). The apparatus consisted of an illuminated compartment attached to a dark one with grid floor. Mice were placed in the light compartment and allowed to enter the dark one. When mice entered the dark compartment, an electric footshock (0.4 mA, 3 sec) was delivered. Immediately after receiving a footshock, mice were administered with cycloheximide (20 mg/kg, sc), a protein synthesis inhibitor, and a retention test trial was carried out 24 hours later. Retention of passive avoidance behavior was measured by the latency to reenter the dark compartment after placing mice in the light compartment. Five minutes before the testing, mice were treated with 5 μl of peptide in a dose of 10 pg and 10 ng by intracerebroventricular injection through a hypodermic needle attached to a 25 μl syringe. Compounds of the present invention were dissolved in saline. […] Median latencies in peptide-treated groups were expressed as a percentage of that in control, and either Mann-WhitneyU test for latencies or chi-square test for percent of mice showing latencies longer than 50 seconds was used in statistical analysis. Number of mice used in each group was 9-22.

[1] = intracerebroventricular injection (10 pg and 10 ng tested; dose not stated per value) 5 min before retention test

Row | Compound | median latency to reenter the dark compartment, as a percentage of that in control [1] | median latency to reenter the dark compartment, as a percentage of that in control (dose of 10 pg, intracerebroventricular injection 5 min before retention test)
1 | NCCCC[C@@H](NC(=O)[C@@H]1CCCN1C(=O)[C@H](CSSC[C@H](N)C(=O)O)NC(=O)[C@H](CC(N)=O)NC(=O)[C@@H]1CCC(=O)N1)C(=O)O [Example 1] ([pGlu]NC(Cys(free,S-linked))P[dK]-OH) | 238% | –
2 | NCCCC[C@@H](NC(=O)[C@H]1CCCN1C(=O)[C@H](CSSC[C@H](N)C(=O)O)NC(=O)[C@H](CC(N)=O)NC(=O)[C@@H]1CCC(=O)N1)C(=O)O [Example 6] ([pGlu]NC(Cys(free,S-linked))[dP][dK]-OH) | 238% | –
3 | C[C@H](NC(=O)[C@H](CSSC[C@H](N)C(=O)O)NC(=O)[C@H](CC(N)=O)NC(=O)[C@@H]1CCC(=O)N1)C(=O)N[C@H](CCCCN)C(=O)O [Example 8] ([pGlu]NC(Cys(free,S-linked))A[dK]-OH) | 179% | –
4 | N=C(N)NCCC[C@H](NC(=O)[C@@H]1CCCN1C(=O)[C@H](CSSC[C@H](N)C(=O)O)NC(=O)[C@H](CC(N)=O)NC(=O)[C@@H]1CCC(=O)N1)C(=O)NCC(N)=O [reference compound] ([pGlu]NC(Cys(free,S-linked))PRG-NH2) | – | 191 % of control
